We go through five compounds from ChEMBL document CHEMBL3751674, “Synthesis, antimicrobial activity of Schiff base compounds of cinnamaldehyde and amino acids” (2016).

Holding throughout (type): functional
Holding throughout (conditions): read-out: DIZ

Assay [1] has as its system Aspergillus niger. The experiment in a line: Antifungal activity against Aspergillus niger at 0.13 mol/L after 2 to 4 days by paper disc method.
For assay [2], the system named is Penicillium citrinum. The assay can be described thus: Antifungal activity against Penicillium citrinum at 0.13 mol/L after 2 to 4 days by paper disc method.
For assay [3], the system named is Aspergillus niger. The experiment in a line: Antifungal activity against Aspergillus niger at 0.25 mol/L after 2 to 4 days by paper disc method.
For assay [4], the system named is Staphylococcus aureus. The assay can be described thus: Antibacterial activity against Staphylococcus aureus at 0.25 mol/L after 12 to 24 hrs by paper disc method.
Assay [5] deals with Staphylococcus aureus. The experiment in a line: Antibacterial activity against Staphylococcus aureus at 0.03 mol/L after 12 to 24 hrs by paper disc method.
Assay [6] has as its system Penicillium citrinum. The assay can be described thus: Antifungal activity against Penicillium citrinum at 0.25 mol/L after 2 to 4 days by paper disc method.
Assay [7] concerns Escherichia coli. The assay can be described thus: Antibacterial activity against Escherichia coli at 0.13 mol/L after 12 to 24 hrs by paper disc method.
For assay [8], the system named is Penicillium citrinum. The experiment in a line: Antifungal activity against Penicillium citrinum at 0.06 mol/L after 2 to 4 days by paper disc method.
The test system of assay [9] is Escherichia coli. The assay can be described thus: Antibacterial activity against Escherichia coli at 0.06 mol/L after 12 to 24 hrs by paper disc method.
Assay [10] relates to Staphylococcus aureus. The assay can be described thus: Antibacterial activity against Staphylococcus aureus at 0.06 mol/L after 12 to 24 hrs by paper disc method.
Assay [11] concerns Aspergillus niger. The assay can be described thus: Antifungal activity against Aspergillus niger at 0.06 mol/L after 2 to 4 days by paper disc method.
Assay [12] deals with Penicillium citrinum. The experiment in a line: Antifungal activity against Penicillium citrinum at 0.03 mol/L after 2 to 4 days by paper disc method.
The test system of assay [13] is Escherichia coli. The assay can be described thus: Antibacterial activity against Escherichia coli at 0.03 mol/L after 12 to 24 hrs by paper disc method.
Assay [14] relates to Staphylococcus aureus. The experiment in a line: Antibacterial activity against Staphylococcus aureus at 0.13 mol/L after 12 to 24 hrs by paper disc method.
Assay [15] relates to Aspergillus niger. The assay can be described thus: Antifungal activity against Aspergillus niger at 0.03 mol/L after 2 to 4 days by paper disc method.
Assay [16] deals with Escherichia coli. The assay can be described thus: Antibacterial activity against Escherichia coli at 0.25 mol/L after 12 to 24 hrs by paper disc method.

Turning to `O=C(O)[C@H](Cc1ccccc1)/N=C/C=C/c1ccccc1`, the zone of inhibition at 130000 µM came out at 9.2 mm in [1], 9.7 mm in [2], 8 mm in assay [7] and 8 mm in assay [14]. The zone of inhibition at 250000 µM in assay [3] came out at 10.7 mm; in assay [4], 11 mm; in assay [6], 10.7 mm; in assay [16], 8 mm. In addition, the zone of inhibition at 30000 µM in assay [5] stood at 10 mm; in assay [12], 8 mm; in assay [13], 8 mm; in assay [15], 8 mm. Besides, the zone of inhibition at 60000 µM in [8] is 8 mm; in assay [9], 8 mm; in assay [10], 8 mm; in assay [11], 8.7 mm.

For `COc1ccc(/C=C/C=N/[C@@H](Cc2ccccc2)C(=O)O)cc1`, the zone of inhibition at 130000 µM was 13 mm in [1], 19.7 mm in assay [2], 13.8 mm in [7] and 8.3 mm in assay [14]. In addition, the zone of inhibition at 250000 µM is 19 mm in assay [3], 12 mm in assay [4], 24.7 mm in [6] and 12.3 mm in [16]. Moreover, the zone of inhibition at 30000 µM in [5] worked out at 8 mm; in assay [12], 14 mm; in [13], 13.2 mm; in assay [15], 18.3 mm. Besides, the zone of inhibition at 60000 µM in assay [8] is 10.5 mm; in assay [9], 8 mm; in assay [10], 8 mm; in [11], 10.8 mm.

For `O=C(O)[C@H](Cc1ccccc1)/N=C/C=C/c1ccc(Cl)cc1`, the zone of inhibition at 130000 µM in [1] was 19.7 mm; in assay [2] it was 23.2 mm; in [7], 26 mm; in [14] it was 29 mm. Further, the zone of inhibition at 250000 µM was found to be 26 mm in assay [3], 33 mm in [4], 35 mm in assay [6] and 19.5 mm in assay [16]. In addition, the zone of inhibition at 30000 µM came out at 9 mm in assay [5], 18.3 mm in assay [12], 9.2 mm in [13] and 12.3 mm in [15]. The zone of inhibition at 60000 µM in assay [8] is 21 mm; in assay [9], 19 mm; in assay [10] it was 13.3 mm; in assay [11] it was 21 mm.

Consider `O=C(O)c1cn(C2CC2)c2cc(N3CCNCC3)c(F)cc2c1=O` [CIPROFLOXACIN], for which the results for the zone of inhibition at 250000 µM in [4] and in [16] were 21 mm and 24.3 mm, respectively. Moreover, the zone of inhibition at 30000 µM stood at 16 mm in assay [5] and 22.3 mm in assay [13]. The zone of inhibition at 130000 µM amounted to 23.3 mm in assay [7] and 21 mm in assay [14]. Besides, the zone of inhibition at 60000 µM in assay [10] is 16.7 mm.

Consider `OC(Cn1cncn1)(Cn1cncn1)c1ccc(F)cc1F` [FLUCONAZOLE], for which the zone of inhibition at 130000 µM in [1] was 18.7 mm; in [2], 13 mm. In addition, the zone of inhibition at 250000 µM in [3] stood at 25 mm; in assay [6], 13.3 mm. For the same compound, the results for the zone of inhibition at 60000 µM in assay [8] and in assay [11] were 9.2 mm and 17.7 mm, respectively. The zone of inhibition at 30000 µM in [12] is 8 mm; in [15] it was 14.5 mm.
